Experimental findings from US20230002361A1, “2H-INDAZOLE DERIVATIVES AND THEIR USE IN THE TREATMENT OF DISEASE” (BIOGEN MA INC., priority 2019, published 2023) are described below.

The structures appear in SMILES notation.

Data set [1] has as its target T1, IRAK4 (Homo sapiens, UniProt Q9NWZ3).
T1 construct: with 0.1 nM IRAK4, 1.6 μM of biotinylated peptide substrate and 10 μM ATP
T1 sequence (Q9NWZ3 1-460): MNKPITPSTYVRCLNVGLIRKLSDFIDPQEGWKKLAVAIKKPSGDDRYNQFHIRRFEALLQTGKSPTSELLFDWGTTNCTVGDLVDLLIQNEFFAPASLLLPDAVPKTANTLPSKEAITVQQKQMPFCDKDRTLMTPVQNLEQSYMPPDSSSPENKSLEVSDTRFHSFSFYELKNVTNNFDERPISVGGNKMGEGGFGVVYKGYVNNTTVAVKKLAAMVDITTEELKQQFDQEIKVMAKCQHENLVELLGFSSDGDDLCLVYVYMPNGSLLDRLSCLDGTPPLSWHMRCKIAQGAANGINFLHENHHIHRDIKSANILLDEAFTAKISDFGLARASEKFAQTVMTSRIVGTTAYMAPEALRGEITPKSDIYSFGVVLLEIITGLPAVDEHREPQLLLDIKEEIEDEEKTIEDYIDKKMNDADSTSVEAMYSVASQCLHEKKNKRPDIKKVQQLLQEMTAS
The data set is described as follows: IRAK4 MSD Biochemical Assay (10 μM ATP, 2 h). The note with it: 0.1 nM IRAK4, 2 h, room temperature. How it is done: The 2-hour 10 μM ATP Biochemical Assay employs a MesoScale Detection (MSD) format. The kinase reaction is based on the IRAK4 phosphorylation of a biotin labeled peptide (IRAK1 activation loop sequence 360-389).
The kinase reaction in 30 μl is carried out in wells of a 384 well polypropylene assay plate, with 0.1 nM IRAK4, 1.6 μM of biotinylated peptide substrate and 10 μM ATP in 50 mM Hepes, pH 7.5, 60 mM NaCl, 5 mM MgCl2, 0.25 mM MnCl2, 2 mM DTT, 0.01% BSA, 0.01% BSA, and 1% DMSO (from compound DMSO stocks), for 2 hour at room temperature. The activity is quenched with 11 μl of 70 mM EDTA, pH 8.
To detect the phosphorylated biotinylated peptide substrate, 30 μl of the quenched reaction mixture is added to equivalent wells of a 384 well streptavidin coated MesoScale plate (Meso Scale Discovery #L21SA-1). After a 1 hour incubation of the plate for 1 hour at room temperature with gentle mixing, the plate wells are washed 3 times with 50 mM Tris, pH 7.5, 150 mM NaCl, 0.02% Tween-20.
A 25 μl volume of 1:500 anti-P-Threonine Rabbit polyclonal Antibody plus 1:500 Goat-anti-Rabbit Sulfo Tag Antibody (Meso Scale Discovery R32AB-1) in 50 mM Tris, pH 7.5, 150 mM NaCl, 0.02% Tween-20 plus 2% BSA is then added to each well. After a 1-hour incubation of the plate for 1 hour at room temperature with gentle mixing, the plate wells are washed, 3 times with 50 mM Tris, pH 7.5, 150 mM NaCl, 0.02% Tween-20. A 40 μl volume of 2×MSD Read Buffer (Meso Scale Discovery R92TC-1) is added to each well, and the plate is read immediately in an MSD Plate Reader (Meso Scale Discovery).

Data set [2] has as its target T2, MDR1 (P-gp) (Homo sapiens, UniProt P08183).
T2 construct: host or cells: MDCK cells
The data set is described as follows: MDR1-MDCK assay (efflux ratio). It counts as in vitro ADME. Conditions: human, MDCK-MDR1, 1 μM compound, 120 minutes incubation; read-out: MDR1-MDCK Efflux Ratio; (B-A/A-B). In a few lines: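 Human MDR1-transfected MDCK monolayers, cultured 7 days on transwell inserts with TEER checked, were dosed with compound at 1 μM in HBSS-HEPES. Transport was measured in both A-B and B-A directions. Efflux ratio came from the directional permeabilities, with mass balance also calculated.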

Data set [3] has as its target T1, IRAK4. The data set is described as follows: IRAK4 MSD Biochemical Assay (1 mM ATP, 2 h). The note with it: room temperature, read-out: IRAK4 MSD Biochemical Assay (1 mM ATP, 2 h) IC50. In a few lines:
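Run with 1 mM ATP and […] for 2 h, then quenched with EDTA, pH 8. The phosphorylated biotinylated peptide was captured on streptavidin plates and detected with anti-phospho-threonine antibody plus Sulfo-Tag secondary by MSD electrochemiluminescence.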

As a reminder, the IC50 is the concentration that gives 50% inhibition.

T2 sequence (P08183 whole entry): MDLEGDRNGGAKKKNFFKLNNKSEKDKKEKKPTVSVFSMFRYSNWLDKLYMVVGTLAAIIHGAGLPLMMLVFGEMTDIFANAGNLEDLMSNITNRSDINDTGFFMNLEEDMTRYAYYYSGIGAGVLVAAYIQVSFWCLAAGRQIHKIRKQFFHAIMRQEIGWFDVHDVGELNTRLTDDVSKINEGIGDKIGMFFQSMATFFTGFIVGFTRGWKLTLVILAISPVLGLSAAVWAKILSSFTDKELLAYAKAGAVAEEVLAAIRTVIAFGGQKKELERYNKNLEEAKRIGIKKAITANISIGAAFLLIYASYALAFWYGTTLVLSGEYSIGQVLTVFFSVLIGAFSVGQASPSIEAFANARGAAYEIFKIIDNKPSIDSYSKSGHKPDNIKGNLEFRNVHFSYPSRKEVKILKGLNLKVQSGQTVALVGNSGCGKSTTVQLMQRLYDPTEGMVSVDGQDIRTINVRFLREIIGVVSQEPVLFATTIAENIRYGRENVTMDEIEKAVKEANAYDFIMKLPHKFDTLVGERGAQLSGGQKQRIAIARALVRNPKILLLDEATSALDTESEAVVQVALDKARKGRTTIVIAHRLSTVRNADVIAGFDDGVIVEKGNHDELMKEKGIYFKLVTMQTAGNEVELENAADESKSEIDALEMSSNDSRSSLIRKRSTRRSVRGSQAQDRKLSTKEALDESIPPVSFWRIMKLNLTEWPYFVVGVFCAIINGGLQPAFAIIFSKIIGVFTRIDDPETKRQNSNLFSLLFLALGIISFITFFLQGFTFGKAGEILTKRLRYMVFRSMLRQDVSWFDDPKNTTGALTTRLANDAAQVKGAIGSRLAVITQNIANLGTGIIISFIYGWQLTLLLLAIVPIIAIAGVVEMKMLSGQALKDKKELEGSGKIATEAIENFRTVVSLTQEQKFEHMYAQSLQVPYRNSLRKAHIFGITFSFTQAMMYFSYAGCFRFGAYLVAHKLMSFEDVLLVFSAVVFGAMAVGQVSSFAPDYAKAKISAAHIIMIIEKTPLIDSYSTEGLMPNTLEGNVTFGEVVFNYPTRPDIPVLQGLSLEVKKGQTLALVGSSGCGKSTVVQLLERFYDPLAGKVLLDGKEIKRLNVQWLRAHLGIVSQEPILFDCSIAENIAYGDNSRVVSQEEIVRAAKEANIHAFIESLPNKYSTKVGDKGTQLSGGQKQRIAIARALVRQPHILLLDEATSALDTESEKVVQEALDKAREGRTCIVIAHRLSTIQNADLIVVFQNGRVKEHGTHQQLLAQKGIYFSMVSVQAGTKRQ

For `COCCn1cc2cc(C(=O)Nc3cccc(C(F)F)n3)c(OC)cc2n1` [Example 10, N-(6-(difluoromethyl)pyridin-2-yl)-6-methoxy-2-(2-methoxyethyl)-2H-indazole-5-carboxamide], the IC50 in data set [1] amounted to 26 nM. Also, in data set [2], the efflux ratio at 120 min, 1 μM was determined as 0.9.
For the compound `COc1cc2nn(CCC(C)(C)OC)cc2cc1C(=O)Nc1cccc(C(F)F)n1` [Example 12, N-(6-(difluoromethyl)pyridin-2-yl)-6-methoxy-2-(3-methoxy-3-methylbutyl)-2H-indazole-5-carboxamide], the values for the half-inhibitory concentration (IC50) in data set [3] and in data set [1] were 5.5 nM and 2 nM, respectively. Further, in data set [2], the efflux ratio at 120 min, 1 μM amounted to 1.4.
For `COc1cc2nn(CC3CCOC3)cc2cc1C(=O)Nc1cccc(C(F)F)n1` (centres unmarked) [Example 11, N-(6-(difluoromethyl)pyridin-2-yl)-6-methoxy-2-((tetrahydrofuran-3-yl)methyl)-2H-indazole-5-carboxamide], in that order: 6.8 nM, 2 nM and 1.1.
